Results as given in ChEMBL document CHEMBL1201862, “PubChem BioAssay data set” (2004).
Calls of active or inactive are those of the source.

What was measured:
[1] = molecular target: T1, Sentrin-specific protease 8 (Homo sapiens, UniProt Q96LD8); format: functional
T1 sequence (Q96LD8 whole entry): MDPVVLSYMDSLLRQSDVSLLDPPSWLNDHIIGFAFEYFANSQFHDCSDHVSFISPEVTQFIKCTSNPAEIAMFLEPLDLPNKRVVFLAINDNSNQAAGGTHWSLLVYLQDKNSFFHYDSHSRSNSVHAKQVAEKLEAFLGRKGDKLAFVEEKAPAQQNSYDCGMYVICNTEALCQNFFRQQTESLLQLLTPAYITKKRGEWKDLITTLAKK

[2] = molecular target: T1, Sentrin-specific protease 8; format: functional; remark: listed apart in the source
[3] = tested on: Streptococcus sp. 'group A'; test: Streptococcus pyogenes SK(-)GAS viability under kanamycin – luminescence, BacTiterGlo, confirmation, counter-screen for streptokinase expression inhibitor project, dose response (AID 1900); format: functional, organism-based
[4] = molecular target: Induced myeloid leukemia cell differentiation protein Mcl-1 (Homo sapiens, UniProt Q07820); format: functional
[5] = tested on: Streptococcus; test: GAS UMAA2166 growth inhibition – luminescence, BacTiterGlo, counter-screen for streptokinase expression inhibitor project, dose response (AID 1915); format: functional, organism-based;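 further: potency for reduction of bacterial viability or growth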
[6] = Luminescence Cell-Based Dose Retest to Confirm Inhibitors of Cancer Stem Cells. [Related pubchem assays (depositor defined):AID2717, AID2721]; format: functional; conditions: Homo sapiens
[7] = molecular target: DNA (cytosine-5)-methyltransferase 1 (Homo sapiens, UniProt P26358); test: inhibition of DNA methylation by DNMT1 – biochemical, fluorescent molecular beacon, confirmation (AID 602386); format: functional
[8] = potency of ADAM10 substrate cleavage blockers – biochemical, QFRET, dose response (AID 743254);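 further: ADAM10 enzyme with the DM2 quenched FRET peptide as substrate; EDANS fluorescence gain as the protease cuts the substrate; inhibitor potency against ADAM10 proteolytic activity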
[9] = molecular target: Disintegrin and metalloproteinase domain-containing protein 17 (Homo sapiens, UniProt P78536); test: inhibition of ADAM17 substrate cleavage – biochemical, quenched FRET substrate, counter-screen for ADAM10 exosite inhibitor project, dose response (AID 743253)
[10] = molecular target: Aryl hydrocarbon receptor (Homo sapiens, UniProt P35869); conditions: Potency;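 further: confirmatory quantitative high-throughput screen measuring activation of the AhR signaling pathway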
[11] = molecular target: Adenosylmethionine-8-amino-7-oxononanoate aminotransferase (Mycobacterium tuberculosis, UniProt P9WQ81); test: Mycobacterium tuberculosis BioA enzyme inhibitor Measured in Biochemical System Using Plate Reader - 2163-02_Inhibitor_Dose_CherryPick_Activity.; format: functional, Mycobacterium tuberculosis UT205
[12] = Luminescence Cell-Based Dose Confirmation HTS to Identify Activators of 5'UTR Stem-Loop Driven Alpha-Synuclein mRNA Translation in H4 Neuroglioblastoma Cells. [Related pubchem assays: 1829 (Project Summary), 1814 (Primary HTS)]; format: functional
[13] = Luminescence Cell-Based Dose Response HTS to Identify Activators of Luciferase Translation or Activity in H4 […] Cells. [Related pubchem assays: 1829 (Project Summary), 1814 (Primary HTS)]; format: functional
[14] = tested on: H4; test: Luminescence Cell-Based Dose Response HTS to Identify Activators of 5'UTR Stem-Loop Driven Prion Protein mRNA Translation in H4 Neuroglioblastoma Cells. [Related pubchem assays: 1829 (Project Summary), 1814 (Primary HTS)]; format: functional; conditions: Homo sapiens
[15] = viability loss in HeLa cells – cytotoxicity control for MgcRacGAP inhibitor project, dose response (AID 624300); format: functional
[16] = molecular target: T2, Rac GTPase-activating protein 1 (Homo sapiens, UniProt Q9H0H5); test: blockers of MgcRacGAP-driven Rac1 GTP hydrolysis – biochemical, ADP Hunter fluorescence, primary and confirmatory, confirmation (AID 624330); format: functional
T2 sequence (Q9H0H5 whole entry): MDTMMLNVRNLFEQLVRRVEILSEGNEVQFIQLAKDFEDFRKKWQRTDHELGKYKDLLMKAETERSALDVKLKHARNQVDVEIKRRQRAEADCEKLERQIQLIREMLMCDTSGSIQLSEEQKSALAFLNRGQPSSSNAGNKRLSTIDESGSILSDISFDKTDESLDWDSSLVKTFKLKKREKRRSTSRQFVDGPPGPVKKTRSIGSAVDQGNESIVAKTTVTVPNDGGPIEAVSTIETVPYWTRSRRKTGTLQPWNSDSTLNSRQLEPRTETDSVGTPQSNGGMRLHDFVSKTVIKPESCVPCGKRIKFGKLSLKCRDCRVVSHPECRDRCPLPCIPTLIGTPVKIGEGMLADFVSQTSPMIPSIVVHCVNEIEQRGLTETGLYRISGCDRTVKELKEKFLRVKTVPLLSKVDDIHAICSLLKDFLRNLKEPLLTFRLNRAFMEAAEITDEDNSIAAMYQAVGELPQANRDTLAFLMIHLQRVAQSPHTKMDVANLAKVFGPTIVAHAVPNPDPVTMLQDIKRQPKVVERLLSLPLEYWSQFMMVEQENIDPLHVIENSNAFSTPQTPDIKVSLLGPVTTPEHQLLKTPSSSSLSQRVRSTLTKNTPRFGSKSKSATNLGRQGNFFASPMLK

[17] = molecular target: T3, ATP-dependent translocase ABCB1 (Homo sapiens, UniProt P08183); test: inhibition of BCRP-mediated JC-1 efflux – Ig-MXP3 cells, flow cytometry, set 2, dose response (AID 504566); format: functional; conditions: read-out: EC50_MICROM_;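 further: flow cytometry median green fluorescence of retained JC-1 dye; potency of efflux pump inhibition measured as rising substrate retention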
[18] = molecular target: T3, ATP-dependent translocase ABCB1; test: P-gp JC-1 efflux blockade concentration-response – Jurkat-DNR cells, flow cytometry, set 2, dose response (AID 504569); format: functional; conditions: read-out: EC50_MICROM_;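 further: potency of pump inhibitors that raise cellular JC-1 green fluorescence up to the nicardipine level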
[19] = molecular target: T4, Low molecular weight phosphotyrosine protein phosphatase (Homo sapiens, UniProt P24666); format: functional; conditions: read-out: IC50_Mean
T4 sequence (P24666 whole entry): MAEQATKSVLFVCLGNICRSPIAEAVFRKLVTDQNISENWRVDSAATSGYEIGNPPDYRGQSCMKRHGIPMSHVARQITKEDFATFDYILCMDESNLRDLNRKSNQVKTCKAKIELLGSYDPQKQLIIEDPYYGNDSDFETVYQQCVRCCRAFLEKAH

[20] = molecular target: T4, Low molecular weight phosphotyrosine protein phosphatase; format: functional; conditions: read-out: IC50_Mean; remark: listed apart in the source

T3 sequence (P08183 whole entry): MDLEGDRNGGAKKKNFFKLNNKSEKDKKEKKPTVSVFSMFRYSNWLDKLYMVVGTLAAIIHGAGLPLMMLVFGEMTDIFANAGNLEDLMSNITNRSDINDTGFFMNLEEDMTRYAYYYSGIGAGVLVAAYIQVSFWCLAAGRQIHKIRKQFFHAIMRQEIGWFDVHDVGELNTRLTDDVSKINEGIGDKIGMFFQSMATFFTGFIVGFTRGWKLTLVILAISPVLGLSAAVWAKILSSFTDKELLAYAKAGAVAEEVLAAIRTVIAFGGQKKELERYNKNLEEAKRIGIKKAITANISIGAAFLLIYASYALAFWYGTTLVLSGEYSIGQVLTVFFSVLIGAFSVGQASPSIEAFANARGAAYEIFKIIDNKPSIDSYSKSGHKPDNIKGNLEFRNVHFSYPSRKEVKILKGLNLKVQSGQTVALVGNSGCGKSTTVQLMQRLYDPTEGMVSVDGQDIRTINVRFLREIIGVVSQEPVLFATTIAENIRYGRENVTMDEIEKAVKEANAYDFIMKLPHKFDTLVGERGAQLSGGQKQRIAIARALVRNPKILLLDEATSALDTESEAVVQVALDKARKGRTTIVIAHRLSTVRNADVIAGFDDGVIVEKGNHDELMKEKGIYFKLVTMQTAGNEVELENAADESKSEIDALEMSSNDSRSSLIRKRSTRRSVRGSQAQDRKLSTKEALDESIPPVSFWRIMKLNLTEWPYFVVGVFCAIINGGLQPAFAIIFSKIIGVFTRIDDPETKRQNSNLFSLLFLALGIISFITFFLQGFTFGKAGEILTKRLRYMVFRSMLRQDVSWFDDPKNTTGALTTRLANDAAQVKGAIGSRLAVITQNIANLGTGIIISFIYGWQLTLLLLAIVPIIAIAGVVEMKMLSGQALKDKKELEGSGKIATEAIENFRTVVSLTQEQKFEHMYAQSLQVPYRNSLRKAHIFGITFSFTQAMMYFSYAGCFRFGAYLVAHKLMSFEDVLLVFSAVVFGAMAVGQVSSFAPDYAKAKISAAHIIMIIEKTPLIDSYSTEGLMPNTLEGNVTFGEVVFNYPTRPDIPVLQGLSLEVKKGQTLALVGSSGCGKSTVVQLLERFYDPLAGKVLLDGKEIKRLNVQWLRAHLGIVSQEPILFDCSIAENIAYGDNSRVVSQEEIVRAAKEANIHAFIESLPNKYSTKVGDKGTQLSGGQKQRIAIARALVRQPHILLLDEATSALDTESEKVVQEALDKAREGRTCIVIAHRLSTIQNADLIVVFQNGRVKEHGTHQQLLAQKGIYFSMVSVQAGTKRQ
Aryl hydrocarbon receptor, sequence (P35869 whole entry): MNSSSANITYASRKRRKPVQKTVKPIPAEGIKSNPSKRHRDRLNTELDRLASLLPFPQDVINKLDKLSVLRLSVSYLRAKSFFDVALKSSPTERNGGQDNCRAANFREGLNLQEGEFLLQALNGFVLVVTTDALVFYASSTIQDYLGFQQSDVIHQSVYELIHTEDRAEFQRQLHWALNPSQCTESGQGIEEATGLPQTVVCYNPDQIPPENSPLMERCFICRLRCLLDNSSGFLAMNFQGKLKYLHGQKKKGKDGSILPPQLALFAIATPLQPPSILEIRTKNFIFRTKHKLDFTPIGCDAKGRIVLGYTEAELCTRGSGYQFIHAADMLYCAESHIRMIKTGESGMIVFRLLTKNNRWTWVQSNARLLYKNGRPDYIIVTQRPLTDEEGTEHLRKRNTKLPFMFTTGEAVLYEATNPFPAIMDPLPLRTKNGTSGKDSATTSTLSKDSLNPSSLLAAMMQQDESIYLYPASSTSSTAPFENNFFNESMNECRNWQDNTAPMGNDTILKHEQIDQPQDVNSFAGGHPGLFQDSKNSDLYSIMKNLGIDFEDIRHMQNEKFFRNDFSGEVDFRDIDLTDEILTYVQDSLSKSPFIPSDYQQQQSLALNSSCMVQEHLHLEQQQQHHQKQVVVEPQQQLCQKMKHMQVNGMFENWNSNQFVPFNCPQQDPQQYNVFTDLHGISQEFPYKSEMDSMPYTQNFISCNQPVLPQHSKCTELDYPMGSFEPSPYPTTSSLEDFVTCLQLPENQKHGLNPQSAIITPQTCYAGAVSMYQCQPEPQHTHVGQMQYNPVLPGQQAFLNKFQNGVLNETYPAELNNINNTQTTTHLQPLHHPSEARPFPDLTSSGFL
Adenosylmethionine-8-amino-7-oxononanoate aminotransferase, sequence (P9WQ81 whole entry): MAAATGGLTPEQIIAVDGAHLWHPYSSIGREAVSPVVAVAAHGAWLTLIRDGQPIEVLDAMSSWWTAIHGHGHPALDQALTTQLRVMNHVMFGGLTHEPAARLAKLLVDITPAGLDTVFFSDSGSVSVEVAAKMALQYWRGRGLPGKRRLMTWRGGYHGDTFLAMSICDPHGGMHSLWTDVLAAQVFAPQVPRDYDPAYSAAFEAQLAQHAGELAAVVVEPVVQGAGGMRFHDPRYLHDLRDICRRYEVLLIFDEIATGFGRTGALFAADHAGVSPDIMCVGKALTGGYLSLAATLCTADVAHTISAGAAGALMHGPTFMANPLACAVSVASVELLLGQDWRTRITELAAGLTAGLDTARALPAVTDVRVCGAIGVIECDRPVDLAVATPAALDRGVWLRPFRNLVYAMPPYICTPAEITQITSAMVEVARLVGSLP
Induced myeloid leukemia cell differentiation protein Mcl-1, sequence (Q07820 whole entry): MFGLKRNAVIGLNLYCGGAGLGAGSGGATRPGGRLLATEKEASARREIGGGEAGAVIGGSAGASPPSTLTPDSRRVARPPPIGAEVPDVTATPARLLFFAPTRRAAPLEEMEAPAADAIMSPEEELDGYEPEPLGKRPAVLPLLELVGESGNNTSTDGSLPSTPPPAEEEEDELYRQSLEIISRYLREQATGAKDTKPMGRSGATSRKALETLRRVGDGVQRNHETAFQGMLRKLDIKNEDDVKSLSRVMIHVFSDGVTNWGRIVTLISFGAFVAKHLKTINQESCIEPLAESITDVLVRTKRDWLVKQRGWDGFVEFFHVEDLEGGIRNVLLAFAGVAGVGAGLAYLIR
Disintegrin and metalloproteinase domain-containing protein 17, sequence (P78536 whole entry, the tested form may be a part): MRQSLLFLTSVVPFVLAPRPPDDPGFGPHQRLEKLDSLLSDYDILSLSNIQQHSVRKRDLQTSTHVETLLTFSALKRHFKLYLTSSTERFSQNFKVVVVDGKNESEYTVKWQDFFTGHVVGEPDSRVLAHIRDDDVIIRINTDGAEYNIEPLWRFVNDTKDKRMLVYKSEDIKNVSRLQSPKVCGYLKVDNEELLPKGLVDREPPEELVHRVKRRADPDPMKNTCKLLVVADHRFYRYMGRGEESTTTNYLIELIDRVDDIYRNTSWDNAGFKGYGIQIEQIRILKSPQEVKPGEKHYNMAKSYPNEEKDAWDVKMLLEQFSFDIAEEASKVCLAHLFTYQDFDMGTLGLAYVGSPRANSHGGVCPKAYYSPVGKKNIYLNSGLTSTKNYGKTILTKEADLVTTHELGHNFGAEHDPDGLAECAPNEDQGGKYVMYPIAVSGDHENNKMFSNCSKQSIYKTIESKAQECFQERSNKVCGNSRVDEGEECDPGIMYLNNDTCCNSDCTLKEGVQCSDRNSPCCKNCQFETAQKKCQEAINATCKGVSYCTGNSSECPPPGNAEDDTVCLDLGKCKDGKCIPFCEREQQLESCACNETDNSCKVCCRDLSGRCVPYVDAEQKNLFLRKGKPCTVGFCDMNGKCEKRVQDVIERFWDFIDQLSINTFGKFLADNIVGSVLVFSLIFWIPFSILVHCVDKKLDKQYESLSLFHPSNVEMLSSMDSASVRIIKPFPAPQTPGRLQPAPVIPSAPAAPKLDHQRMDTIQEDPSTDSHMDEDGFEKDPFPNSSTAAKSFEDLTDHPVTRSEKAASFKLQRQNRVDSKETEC

## CCOc1cc(C(c2c(C)[nH][nH]c2=O)c2c(C)[nH][nH]c2=O)ccc1OS(=O)(=O)c1ccccc1
[1]
  IC50: 20.9 µM (active)
[2]
  IC50: 33.2 µM (active)

## Cc1ccc(C2C(/C=C3/SC(=S)NC3=O)=C(c3cccs3)Oc3ccccc32)cc1 (stereo not given)
[3]
  EC50: 0.649 µM (active)
[4]
  IC50: 3.63 µM (active)
[5]
  EC50: 1.11 µM (active)
[6]
  AC50: 0.874 µM (active)
[7]
  IC50: 3.74 µM (active)
[8]
  IC50: 16.7 µM (inactive)
[9]
  IC50: 33.7 µM (inactive)

## O=C=Nc1ccc(Cl)c(Cl)c1
[10]
  AC50: 56.2 µM (inconclusive)

## CC(=O)c1ccc(NC(=O)COC(=O)Cc2ccsc2)cc1
[11]
  AC50: 6.97 µM (active)

## COc1ccc(/C=N/Nc2ncnc3sc4c(c23)CCCC4)cc1O
[12]
  EC50: 13.4 µM (active)
[13]
  EC50: 6.72 µM (active)
[14]
  EC50: 8.38 µM (active)
[15]
  CC50: 70.4 µM (active)
[16]
  IC50: 56.1 µM (active)

## O=C(c1ccoc1)N1CCN(c2cc(-c3ccccc3F)nc3cc(-c4cccc(Cl)c4)nn23)CC1
[17]
  EC50: 1.59 µM (active)
[18]
  EC50: 5.75 µM (active)

## CCc1nc(N)nc(N)c1-c1ccc(Cl)c(N=[N+]=[N-])c1
[19]
  IC50: 24.2 µM (inactive)
[20]
  IC50: 14.3 µM (active)
